Test results from patent US20260132160A1, “IRON REPLACEMENT TREATMENTS” (The General Hospital Corporation, priority 2022, published 2026).
“Also recorded” adds a separate entry of the source.

What was measured:
apo-transferrin [1] = molecular target: T1, apo-transferrin (Homo sapiens, UniProt P02787); assay: Fe delivery to apo-transferrin (fluorescence quenching, urea gel electrophoresis); assay type: biochemical
Experimental: Incubation with FPC was positive control, the stable compound Fe-PyC3A was negative control (Conditions: 50 mM HEPES buffer supplemented with 25 mM bicarbonate, pH 7.4, 37° C.).
Transfer of Fe from Fe-BBG to apo-transferrin can be monitored through quenching of the apo-transferrin intrinsic fluorescence.
Transfer of Fe from Fe-BBG to apo-transferrin can also be monitored using urea gel electrophoresis.

apo-transferrin [2] = molecular target: T1, apo-transferrin; assay: Time course of Fe3+ transfer to apo-transferrin (fluorescence at 330 nm); assay type: biochemical; conditions: 40 μM Fe-BBG, 20 μM apo-transferrin, pH 7.4; instrument temporal resolution 6 s
Experimental: FIG. 5 plots the time course of Fe^3+ transfer of Fe-BBG to transferrin. The reaction was monitored through the quenching of apo-transferrin intrinsic fluorescence (conditions: 40 μM Fe-BBG, 20 μM apo-transferrin, 50 mM HEPES buffer supplemented with 25 mM HCO3, pH 7.4; 25° C. λEx=280 nm.). Fe^3+ transfer from Fe-BBG to apo-transferrin was complete within 6 s. The temporal resolution of the instrument is 6 s, and the reaction is too fast for us to quantify kinetics.

[3] = Ascorbate reduction challenge (UV-vis); assay type: physicochemical; conditions: 0.1 mM Fe-BBG, 0.1 mM sodium ascorbate, pH 7.4
[4] = Pharmacokinetics by dynamic magnetic resonance imaging; assay type: in vivo; conditions: mouse
From the text: Fe-BBG is paramagnetic, which enables us to monitor Fe-BBG blood clearance and excretion through dynamic magnetic resonance imaging.

[5] = pH-potentiometric titration, Fe3+ complex; assay type: physicochemical; conditions: 310 K, I=0.1 M NaCl
Experimental: The aqueous solutions thermodynamics of BBG and its corresponding complexes of Fe^3+, Cu^2+, and Zn^2+ were interrogated through pH-potentiometric titration of BBG (L) in the absence and presence of 1 molar equivalent of Fe^3+, Cu^2+, or Zn^2+, FIG. 13A.
pH-potentiometric measurements were performed using an Orion ROSS Ultra pH electrode and temperature-controlled reaction vessel held at 310 K. A standardized solution of 0.10 M NaOH was used as the titrant. The electrode was calibrated prior to each titration by titrating a standardized HCl(aq) solution at ionic strength 0.10 using NaCl as the inert electrolyte with the standardized NaOH titrant. A working slope and intercept were generated by plotting mV as a function of calculated pH, which enabled direct conversion of electrode readings to [H^+] during sample titrations. pH values recorded during the titrations refers to hydrogen ion concentration. All titration samples were prepared in solutions of 0.10 M NaCl in distilled, deionized water. Ligand solutions were prepared by dissolving a weighed quantity into water and concentration was determined from the effective weight of the ligand and confirmed by the quantity of NaOH required to consume 1 molar equivalent of ligand proton. […]

Tmprss6 knockout mice [6] = assay: Therapeutic efficacy in mouse model of iron refractory iron deficiency anemia; assay type: in vivo
Experimental: (§1) Tmprss6 knockout mice received 29 intraperitoneal injections each containing 25 μg Fe as Fe-BBG (1.3±0.18 μg Fe per gram body weight, N=5 mice, 2 male, 3 female) or containing saline (placebo, N=5 mice, 2 male, 3 female) over 15 days. The cumulative dose of Fe was 725 μg Fe (37±0.53 μg Fe per gram body weight). The mice were euthanized 120 min after the final injection. Blood was harvested for measurement of complete blood counts, and nonheme Fe parameters. Bone marrow and liver tissue were analyzed by qPCR for expression of genes related to erythropoietic activity, Fe exposure, oxidative stress, and inflammation, the data are tabulated in FIG. 15. Clinical chemistry was also recorded, see Example 16 below. FIG. 15 data are shown as mean±standard deviation. Statistical differences between groups were determined by two-tailed Student's t-test for normally distributed values or Mann-Whitney (/test for non-normally distributed values. Significant differences are indicated by *P<0.05, **P<0.01, ****P<0.0001.

Tmprss6 knockout mice [7] = assay: Tolerability after repeat dosing (clinical chemistry, liver qPCR); assay type: in vivo, mouse
Experimental: as §1
FIG. 16 data are shown as mean±standard deviation. Statistical differences between groups were determined by two-tailed Student's t-test for normally distributed values or Mann-Whitney U test for non-normally distributed values. Significant differences are indicated by *P<0.05, **P<0.01, ***P<0.001, ****P<0.0001.

[8] = 29 i.p. injections of 25 μg Fe over 15 days, vs placebo
[9] = 120 min after final injection, vs placebo

T1 sequence (P02787 20-698): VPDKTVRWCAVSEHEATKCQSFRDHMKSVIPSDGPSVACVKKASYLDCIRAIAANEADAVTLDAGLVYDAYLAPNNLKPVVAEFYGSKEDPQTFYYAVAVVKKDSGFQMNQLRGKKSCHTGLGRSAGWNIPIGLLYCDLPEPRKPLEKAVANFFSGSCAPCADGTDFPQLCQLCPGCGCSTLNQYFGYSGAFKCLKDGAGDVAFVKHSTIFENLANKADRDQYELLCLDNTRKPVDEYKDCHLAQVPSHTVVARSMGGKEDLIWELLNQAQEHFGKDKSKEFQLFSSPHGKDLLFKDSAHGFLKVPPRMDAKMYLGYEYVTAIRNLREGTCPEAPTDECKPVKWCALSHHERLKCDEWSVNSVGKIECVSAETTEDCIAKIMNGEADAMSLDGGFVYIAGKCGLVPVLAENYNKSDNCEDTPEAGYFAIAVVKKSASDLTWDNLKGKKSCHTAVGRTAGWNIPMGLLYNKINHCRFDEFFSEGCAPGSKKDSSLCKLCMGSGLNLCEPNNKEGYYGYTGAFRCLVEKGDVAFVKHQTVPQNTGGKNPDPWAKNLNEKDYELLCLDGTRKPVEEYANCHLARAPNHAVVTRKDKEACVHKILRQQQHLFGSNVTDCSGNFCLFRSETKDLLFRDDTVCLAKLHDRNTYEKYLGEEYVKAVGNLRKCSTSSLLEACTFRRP

Fe^3+ transfer to apo-transferrin (apo-transferrin [1]; 50 mM HEPES, 25 mM bicarbonate, pH 7.4, 37° C.): stoichiometric transfer
Fe^3+ transferred to apo-transferrin (apo-transferrin [1]; urea gel, 10 μM apo-transferrin, 0-10 equiv Fe-BBG): 2 molar equivalents
time to complete Fe^3+ transfer to apo-transferrin (apo-transferrin [2]): ≤ 6 s
462 nm absorption peak upon challenge with ascorbate [3]: remains unchanged
blood elimination half life (vena cava MR signal) ([4]; 0.14 mmol/kg injection, monoexponential fit): 5.5 ± 2.8 min
hepatobiliary excretion (liver, gallbladder, bowel enhancement) ([4]; MRI): partial hepatobiliary excretion
conditional pH 7.4 stability constant log KFeL PH 7.4 [5]: 19.51
clearance of Fe-BBG from serum (Tmprss6 knockout mice [6]; 120 min after the final injection): cleared entirely
Compound: O.O.O=C([O-])CC[C@H]1C(=O)[O][Fe]2[O]c3ccccc3CN1Cc1ccccc1[O]2 [Fe-BBG]
renal excretion (kidney enhancement) ([4]; MRI): rapid elimination through the kidneys; also recorded: rapid urinary excretion
hematocrit (Tmprss6 knockout mice [6]; [8]): increased significantly
hemoglobin (Tmprss6 knockout mice [6]; [8]): significant elevation
mean corpuscle volume (Tmprss6 knockout mice [6]; [8]): significantly increased
red cell width (Tmprss6 knockout mice [6]; [8]): significantly increased
mean % TSAT increase (Tmprss6 knockout mice [6]; [9]): ~7 fold
serum Fe (Tmprss6 knockout mice [6]; [9]): elevated
total iron binding capacity (TIBC) (Tmprss6 knockout mice [6]; [9]): unchanged relative to placebo
unbound iron binding capacity (UIBC) (Tmprss6 knockout mice [6]; [9]): concomitant decrease
bone marrow erythroferrone (Erfe) expression (Tmprss6 knockout mice [6]; qPCR): significantly downregulated
glycophorin A (GypA) expression (Tmprss6 knockout mice [6]; qPCR, bone marrow): downregulated
transferrin receptor type 1 (Tfrc) expression (Tmprss6 knockout mice [6]; qPCR, bone marrow): downregulated
other hematology parameters (Tmprss6 knockout mice [6]; vs placebo): No noteworthy differences
oxidative stress (Tmprss6 knockout mice [7]; from Hmox1, Gclc, NqoI taken together): did not result in oxidative stress
Serum amyloid A1 (SaaI) expression (Tmprss6 knockout mice [7]; qPCR, marker of inflammation, repeat dosing): unchanged
liver NAD (P) H quinone dehydrogenase 1 (NqoI) expression (Tmprss6 knockout mice [7]; qPCR, repeat dosing): did not trigger upregulation
liver glutamate-cysteine ligase catalytic subunit (Gclc) expression (Tmprss6 knockout mice [7]; qPCR, repeat dosing): did not trigger upregulation
liver heme oxygenase 1 (Hmox1) expression (Tmprss6 knockout mice [7]; qPCR, repeat dosing): did not trigger upregulation
clinical chemistry parameters (Tmprss6 knockout mice [7]; repeat dosing, vs placebo): did not generate significant differences
